In this assay the target is T1, Human Factor XIIa (Homo sapiens, UniProt P00748).
T1 construct: Proteolytic cleavage of FXII to heavy and light chains of FXIIa dramatically increases catalytic activity; purchased Enzyme Research Laboratories
T1 sequence (P00748 373-615 limits assumed): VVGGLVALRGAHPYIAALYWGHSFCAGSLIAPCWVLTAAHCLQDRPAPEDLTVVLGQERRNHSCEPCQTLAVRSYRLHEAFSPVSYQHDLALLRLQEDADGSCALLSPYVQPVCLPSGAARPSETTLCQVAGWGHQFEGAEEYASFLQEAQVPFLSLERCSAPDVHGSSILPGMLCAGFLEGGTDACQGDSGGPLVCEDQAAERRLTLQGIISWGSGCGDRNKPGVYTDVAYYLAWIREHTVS
T1 sequence (P00748 20-372 partner limits assumed): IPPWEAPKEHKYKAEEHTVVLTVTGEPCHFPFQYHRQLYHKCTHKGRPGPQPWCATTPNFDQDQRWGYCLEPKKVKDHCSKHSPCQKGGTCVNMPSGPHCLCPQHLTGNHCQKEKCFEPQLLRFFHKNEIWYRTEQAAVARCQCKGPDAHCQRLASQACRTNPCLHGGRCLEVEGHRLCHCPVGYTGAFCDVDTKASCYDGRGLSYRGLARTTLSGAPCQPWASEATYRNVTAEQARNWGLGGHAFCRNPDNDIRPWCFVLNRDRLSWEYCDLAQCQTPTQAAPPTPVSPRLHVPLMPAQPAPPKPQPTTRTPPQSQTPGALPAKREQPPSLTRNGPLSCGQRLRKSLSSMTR
Description: Determination of FXIIa inhibition (fluorogenic substrate H-DPro-Phe-Arg-AFC, IC50 assay). Type of assay: biochemical. Conditions: substrate at Km concentration, 25° C.; category scale; read-out: Human FXII IC50 (nm). Here is the method: In vitro inhibition of Factor XIIa was determined using an IC50 assay based on standard literature methods (see e.g Baeriswyl et al., ACS Chem. Biol., 2015, 10 (8) 1861; Bouckaert et al., European Journal of Medicinal Chemistry 110 (2016) 181). Human Factor XIIa (Enzyme Research Laboratories) was incubated at 25° C. with the fluorogenic substrate H-DPro-Phe-Arg-AFC (Peptide Protein Science) and various concentrations of the test compound. Protease activity was measured by monitoring the accumulation of liberated fluorescence from the substrate over 5 min at 25° C. The linear rate of fluorescence increase per minute was expressed as percentage (%) activity. The Km for the cleavage of the substrate by FXIIa was determined by standard transformation of the Michaelis-Menten equation. The compound inhibitor assays were performed at substrate Km concentration. IC50 values were calculated as the concentration of inhibitor giving 50% inhibition (IC50) of the uninhibited enzyme activity (100%).
With `Cc1ccnc(OCC23CCOC(CNc4cccc5c(N)nccc45)(C2)C3)c1` [Example 10955, N5-((5-(((4-methylpyridin-2-yl)oxy)methyl)-2-oxabicyclo[3.1.1]heptan-1-yl)methyl)isoquinoline-1,5-diamine], the IC50 fell in the range of 1000 to 3000 nM.

Regarding `Cc1ccc(OCC23CCOC(CNc4cccc5c(N)nccc45)(C2)C3)nc1` [Example 10956, N5-((5-(((5-methylpyridin-2-yl)oxy)methyl)-2-oxabicyclo[3.1.1]heptan-1-yl)methyl)isoquinoline-1,5-diamine], the IC50 fell in the range of 1000 to 3000 nM.

Regarding `Cc1cccc(OCC23CCOC(CNc4cccc5c(N)nccc45)(C2)C3)n1` [Example 10957, N5-((5-(((6-methylpyridin-2-yl)oxy)methyl)-2-oxabicyclo[3.1.1]heptan-1-yl)methyl)isoquinoline-1,5-diamine], the concentration for half-maximal inhibition (IC50) was 3000 to 10000 nM.

As for `c1cc2cc(NCC34CC(COc5ccn6ccnc6c5)(CCO3)C4)ccc2cn1` [Example 10958, N-((5-((imidazo[1,2-a]pyridin-7-yloxy)methyl)-2-oxabicyclo[3.1.1]heptan-1-yl)methyl)isoquinolin-6-amine], the IC50 fell in the range of 10000 to 40000 nM.

In the case of `Nc1nccc2c(NCC34CC(COc5ccn6c(C(F)(F)F)nnc6c5)(CCO3)C4)cccc12` [Example 10961, N5-((5-(((3-(trifluoromethyl)-[1,2,4]triazolo[4,3-a]pyridin-7-yl)oxy)methyl)-2-oxabicyclo[3.1.1]heptan-1-yl)methyl)isoquinoline-1,5-diamine], the IC50 was 300 to 1000 nM.

As for `Cc1cn(C)c(=O)nc1OCC12CCOC(CNc3cccc4c(N)nccc34)(C1)C2` [Example 10962, 4-((1-(((1-aminoisoquinolin-5-yl)amino)methyl)-2-oxabicyclo[3.1.1]heptan-5-yl)methoxy)-1,5-dimethylpyrimidin-2(1H)-one], the IC50 was 1000 to 3000 nM.

With `Nc1nccc2c(NCC34CC(COc5ccnnc5)(CCO3)C4)cccc12` [Example 10963, N5-((5-((pyridazin-4-yloxy)methyl)-2-oxabicyclo[3.1.1]heptan-1-yl)methyl)isoquinoline-1,5-diamine], the IC50 fell in the range of 3000 to 10000 nM.

Regarding `CCn1c(C)cc(OCC23CCOC(CNc4cccc5c(N)nccc45)(C2)C3)cc1=O` [Example 10964, 4-((1-(((1-aminoisoquinolin-5-yl)amino)methyl)-2-oxabicyclo[3.1.1]heptan-5-yl)methoxy)-1-ethyl-6-methylpyridin-2(1H)-one], the IC50 fell in the range of 10 to 100 nM.

`Nc1nccc2c(NCC34CC(COc5cccnc5)(CCO3)C4)cccc12` [Example 10968, N5-((5-((pyridin-3-yloxy)methyl)-2-oxabicyclo[3.1.1]heptan-1-yl)methyl)isoquinoline-1,5-diamine]: the IC50 fell in the range of 3000 to 10000 nM.

Consider `Nc1nccc2c(NCC34CC(COc5ccn6nncc6c5)(CCO3)C4)cccc12` [Example 10969, N5-((5-(([1,2,3]triazolo[1,5-a]pyridin-5-yloxy)methyl)-2-oxabicyclo[3.1.1]heptan-1-yl)methyl)isoquinoline-1,5-diamine], for which the IC50 was 1000 to 3000 nM.

Regarding `Cc1cc(OCC23CCOC(CNc4cccc5c(N)nccc45)(C2)C3)ncn1` [Example 10971, N5-((5-(((6-methylpyrimidin-4-yl)oxy)methyl)-2-oxabicyclo[3.1.1]heptan-1-yl)methyl)isoquinoline-1,5-diamine], the IC50 was 300 to 1000 nM.

For the compound `Nc1nccc2c(NCC34CC(COc5cc6n(c(=O)c5)CCC6)(CCO3)C4)cccc12` [Example 10972, 7-((1-(((1-aminoisoquinolin-5-yl)amino)methyl)-2-oxabicyclo[3.1.1]heptan-5-yl)methoxy)-2,3-dihydroindolizin-5(1H)-one], the IC50 was in the range of 10 to 100 nM.

Regarding `Nc1nccc2c(NCC34CC(COc5ccc6ncoc6c5)(CCO3)C4)cccc12` [Example 10973, N5-((5-((benzo[d]oxazol-6-yloxy)methyl)-2-oxabicyclo[3.1.1]heptan-1-yl)methyl)isoquinoline-1,5-diamine], the IC50 is 1000 to 3000 nM.

Take `Cc1nccc(OCC23CCOC(CNc4cccc5c(N)nccc45)(C2)C3)n1` [Example 10974, N5-((5-(((2-methylpyrimidin-4-yl)oxy)methyl)-2-oxabicyclo[3.1.1]heptan-1-yl)methyl)isoquinoline-1,5-diamine]: the IC50 lay in the range of 3000 to 10000 nM.

With `Nc1nccc2c(NCC34CC(COc5ccn(C(F)F)c(=O)c5)(CCO3)C4)cccc12` [Example 10975, 4-((1-(((1-aminoisoquinolin-5-yl)amino)methyl)-2-oxabicyclo[3.1.1]heptan-5-yl)methoxy)-1-(difluoromethyl)pyridin-2(1H)-one], the IC50 lay in the range of 300 to 1000 nM.

Regarding `Nc1nccc2c(NCC34CC(COc5cnccn5)(CCO3)C4)cccc12` [Example 10976, N5-((5-((pyrazin-2-yloxy)methyl)-2-oxabicyclo[3.1.1]heptan-1-yl)methyl)isoquinoline-1,5-diamine], the IC50 was 10000 to 40000 nM.

Take `Cn1ccc(OCC23CNC(CNc4ccc5c(N)nccc5c4)(C2)C3)cc1=O` [Example 12011, 4-((1-(((1-aminoisoquinolin-6-yl)amino)methyl)-2-azabicyclo[2.1.1]hexan-4-yl)methoxy)-1-methylpyridin-2(1H)-one]: the IC50 lay in the range of 300 to 1000 nM.

As to `CN1Cc2ccc(OCC34CN(C(=O)OCc5ccccc5)C(CNc5cccc6c(N)nccc56)(C3)C4)cc2C1=O` [Example 12012, benzyl 1-(((1-aminoisoquinolin-5-yl)amino)methyl)-4-(((2-methyl-3-oxoisoindolin-5-yl)oxy)methyl)-2-azabicyclo[2.1.1]hexane-2-carboxylate], the IC50 is 100 to 300 nM.

`COC(=O)N1CC2(COc3ccn(C)c(=O)c3)CC1(CNc1ccc3c(N)nccc3c1)C2` [Example 12013, methyl 1-(((1-aminoisoquinolin-6-yl)amino)methyl)-4-(((1-methyl-2-oxo-1,2-dihydropyridin-4-yl)oxy)methyl)-2-azabicyclo[2.1.1]hexane-2-carboxylate]: the IC50 is 300 to 1000 nM.

On to `Cn1ccc(OCC23CN(S(=O)(=O)CCc4ccccc4)C(CNc4cccc5c(N)nccc45)(C2)C3)cc1=O` [Example 12014, 4-[[1-[[(1-aminoisoquinolin-5-yl)amino]methyl]-2-(2-phenylethylsulfonyl)-2-azabicyclo[2.1.1]hexan-4-yl]methoxy]-1-methylpyridin-2-one], for which the IC50 lay within 10 to 100 nM.

On to `Cn1ccc(OCC23CN(C(=O)Oc4ccccc4Cl)C(CNc4cccc5c(N)nccc45)(C2)C3)cc1=O` [Example 12015, 2-chlorophenyl 1-(((1-aminoisoquinolin-5-yl)amino)methyl)-4-(((1-methyl-2-oxo-1,2-dihydropyridin-4-yl)oxy)methyl)-2-azabicyclo[2.1.1]hexane-2-carboxylate], for which the IC50 lay within 10 to 100 nM.

In the case of `CN1Cc2cc(OCC34CN(C(=O)OCc5ccccc5)C(CNc5cccc6c(N)nccc56)(C3)C4)ccc2C1=O` [Example 12018, benzyl 1-(((1-aminoisoquinolin-5-yl)amino)methyl)-4-(((2-methyl-1-oxoisoindolin-5-yl)oxy)methyl)-2-azabicyclo[2.1.1]hexane-2-carboxylate], the half-maximal inhibitory concentration (IC50) was in the range of 10 to 100 nM.

A word on the IC50: it is the concentration that gives 50% inhibition.

The values above are taken from US20240327412A1, “FACTOR XIIA INHIBITORS” (KALVISTA PHARMACEUTICALS LIMITED, priority 2021, published 2024).
